Source: patent US10800788B2, “4-(aryl)-N-(3-alkoxyfuro[2,3-b]pyrazin-2-yl)-piperazine-1-carboxamide derivative and antiproliferative effect thereof” (Dongguk University Industry-Academic Cooperation Foundation, priority 2016, dated 2020)

Legend:
[1] = system: MDA-MB-231 (breast cancer) cell line; test: Cell growth inhibition experiment (SRB), MDA-MB-231; type: cell-based, human; settings: Homo sapiens, MDA-MB-231, 96 h, 96 hours incubation
Method in brief: (§1)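 Cells in DMEM with 10% FBS were seeded at 2 to 3×10^3 cells/well, dosed the next day and incubated 96 hours at 37° C, 5% CO2. After TCA fixation and sulforhodamine B staining, OD530 was converted to viable cell number with a per-line standard curve. % survival is test over control; triplicate runs.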

[2] = system: UMRC2 (kidney cancer) cell line; test: Cell growth inhibition experiment (SRB), UMRC2; type: cell-based, human; settings: Homo sapiens, UMRC2, 96 h, 96 hours incubation
Method in brief: as §1

[3] = system: PANC-1 (pancreatic cancer) cell line; test: Cell growth inhibition experiment (SRB), PANC-1; type: cell-based; settings: Homo sapiens, PANC-1, 96 h, 96 hours incubation
Method in brief: as §1

[4] = system: HN31 (head and neck cancer) cell line; test: Cell growth inhibition experiment (SRB), HN31; type: cell-based, human; settings: Homo sapiens, 96 h, 96 hours incubation
Method in brief: as §1

[5] = system: A549; test: Cell growth inhibition experiment (SRB), A549; type: cell-based; settings: Homo sapiens, A549, 96 h, 96 hours incubation, read-out: IC50 (μM) for cancer cell line A549
Method in brief: (§2)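 Cells seeded at 2 to 3×10^3 cells/well, cultured overnight, then exposed to compound for 96 h, in triplicate. SRB staining after TCA fixation, absorbance at 530 nm; OD530 converted to viable cell number via each line's standard curve, and % survival expressed relative to untreated control.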

[6] = system: HEK293; test: Cell growth inhibition experiment (SRB), HEK293; type: cell-based, human; settings: Homo sapiens, HEK293, 96 h, 96 hours incubation, read-out: IC50 (μM) for cancer cell line HEK293
Method in brief: as §2

[7] = system: HUVEC; test: Cell growth inhibition experiment (SRB), HUVEC; type: cell-based, human; settings: Homo sapiens, HUVEC, 96 h, 96 hours incubation, read-out: IC50 (μM) […]
Method in brief: as §2

[8] = system: HT29; test: Cell growth inhibition experiment (SRB), HT29; type: cell-based, human; settings: Homo sapiens, HT-29, 96 h, 96 hours incubation, read-out: IC50 (μM) for cancer cell line HT29
Method in brief: as §2

[9] = system: SK-OV-3; test: Cell growth inhibition experiment (SRB), SK-OV-3; type: cell-based, human; settings: Homo sapiens, SK-OV-3, 96 h, 96 hours incubation, read-out: IC50 (μM) for cancer cell line SK-OV-3
Method in brief: as §2

IC50 [1] [µM] | IC50 [2] [µM] | IC50 [3] [µM] | IC50 [4] [µM] | IC50 [5] [µM] | IC50 [8] [µM] | IC50 [9] [µM] | SMILES | IC50 [6] [µM] | IC50 [7] [µM]
0.32 | 1.68 | 1.58 | 1.45 | < 2.5 | < 2.5 | < 2.5 | CCOc1nc2oc(Cl)cc2nc1NC(=O)N1CCN(c2cc(OC)cc(OC)c2)CC1 [Example 51, N-(6-Chloro-3-ethoxyfuro[2,3-b]pyrazin-2-yl)-4-(3,5-dimethoxyphenyl)piperazine-1-carboxamide] | < 2.5 | < 2.5
1.18 | 0.68 | 1.68 | 1.36 | 1.87 | < 2.5 | < 2.5 | CCOc1nc2oc(Cl)cc2nc1NC(=O)N1CCN(c2cc(C)cc(OC)c2)CC1 [Example 52, N-(6-Chloro-3-ethoxyfuro[2,3-b]pyrazin-2-yl)-4-(3-methoxy-5-methylphenyl)piperazine-1-carboxamide] | 1.74 | 1.62
0.48 | 0.32 | 0.56 | 0.45 | 1.68 | 1.67 | 1.91 | CCOc1nc2oc(Cl)cc2nc1NC(=O)N1CCN(c2cc(F)cc(OC)c2)CC1 [Example 53, N-(6-Chloro-3-ethoxyfuro[2,3-b]pyrazin-2-yl)-4-(3-fluoro-5-methoxyphenyl)piperazine-1-carboxamide] | 1.98 | 1.88
1.68 | 1.32 | 1.88 | 1.78 | 1.86 | < 2.5 | < 2.5 | CCOc1nc2oc(Cl)cc2nc1NC(=O)N1CCN(c2cc(OC)cc(OCCN(C)C)c2)CC1 [Example 54, N-(6-Chloro-3-ethoxyfuro[2,3-b]pyrazin-2-yl)-4-(3-(2-(dimethylamino)ethoxy)-5-methoxyphenyl)piperazine-1-carboxamide] | 1.65 | 1.75
0.32 | 0.68 | 1.68 | 1.75 | < 2.5 | < 2.5 | < 2.5 | CCOc1nc2oc(Cl)cc2nc1NC(=O)N1CCN(c2cc(C)cc(C)c2)CC1 [Example 55, N-(6-Chloro-3-ethoxyfuro[2,3-b]pyrazin-2-yl)-4-(3,5-dimethylphenyl)piperazine-1-carboxamide] | < 2.5 | < 2.5
0.36 | 0.87 | 1.68 | 1.75 | < 2.5 | < 2.5 | < 2.5 | CCOc1nc2oc(Cl)cc2nc1NC(=O)N1CCN(c2cc(C)cc(F)c2)CC1 [Example 56, N-(6-Chloro-3-ethoxyfuro[2,3-b]pyrazin-2-yl)-4-(3-fluoro-5-methylphenyl)piperazine-1-carboxamide] | < 2.5 | < 2.5
< 2.5 | < 2.5 | < 2.5 | < 2.5 | < 2.5 | < 2.5 | < 2.5 | CCOc1nc2oc(Cl)cc2nc1NC(=O)N1CCN(c2cc(F)cc(F)c2)CC1 [Example 57, N-(6-Chloro-3-ethoxyfuro[2,3-b]pyrazin-2-yl)-4-(3,5-difluorophenyl)piperazine-1-carboxamide] | < 2.5 | < 2.5
< 2.5 | < 2.5 | < 2.5 | < 2.5 | < 2.5 | < 2.5 | < 2.5 | CCOc1nc2oc(Cl)cc2nc1NC(=O)N1CCN(c2cc(F)cc(C(F)(F)F)c2)CC1 [Example 58, N-(6-Chloro-3-ethoxyfuro[2,3-b]pyrazin-2-yl)-4-(3-fluoro-5-(trifluoromethyl)phenyl)piperazine-1-carboxamide] | < 2.5 | < 2.5
1.68 | 1.87 | 1.98 | < 2.5 | < 2.5 | < 2.5 | < 2.5 | CCOc1nc2oc(Cl)cc2nc1NC(=O)N1CCN(c2cc(C(F)(F)F)cc(C(F)(F)F)c2)CC1 [Example 59, 4-(3,5-Bis(trifluoromethyl)phenyl)-N-(6-chloro-3-ethoxyfuro[2,3-b]pyrazin-2-yl)piperazine-1-carboxamide] | < 2.5 | < 2.5
